Source: US6825354B2 (Wyeth Holdings Corporation, priority 1999, dated 2004)
Read-outs that look alike come from different tables or passages of the source. Blank lines part the entries; values can stand above or below the compound they belong to.

Experiments:
[1] = tested on: THP-1 cells (soluble TNF-α); assay: Human monocytic THP-1 cell differentiation assay for soluble proteins (THP soluble protein assay); format: cell-based; settings: negative = less TNF-α; for inhibition at 3 µM: Homo sapiens, THP-1, percent change from vehicle positive control, read-out: TNFalpha at 3 uM, THP (percent change); for TNFalpha at 3 uM, THP (percent change): percent change from vehicle positive control
Description: Mitogenic stimulation of THP-1 cells cause differentiation into macrophage like cells with concomitant secretion of tumor necrosis factor (TNF-a) and TNF receptor (TNF-R p75/80 and TNF-R p55/60) and Interleukin-8 (IL-8), among other proteins. […] The release of membrane bound TNF-a and possibly TNF-R p75/80 and TNF-R p55/60, but not IL-8, is mediated by an enzyme called TNF-α converting enzyme or TACE.
THP-1 cells (from ATCC) are a human monocytic cell line which were obtained from the peripheral blood of a person with acute monocytic leukemia They can be grown in culture and differentiated into macrophage like cells by stimulation with mitogens.
Each vial of cells are cultured for about two weeks prior to being used for an assay and then are used for only 4 to 6 weeks to screen compounds.
Cell exposure to DMSO was limited to 0.1% final concentration. […] Compounds can be evaluated for their effect on basal (non-stimulated) shedding of the receptors by replacing the LPS with […] of THP-1 media Plates are placed into an incubator set at 5% CO2 and at 37° C. After 4 hours of incubation, […] of tissue culture supernatant (TCS) is removed for use in an TNF-α ELISA. Following 24 hours of incubation, […] of TCS is removed and used for analysis in TNF-R p75/80, TNF-R p55/60 and IL-8 ELISAs.
In addition, at the 24 hours timepoint, and the cells for each treatment group are collected by resuspension in 500 μl/well of THP-1 media and transferred into a FACS tube. […] The samples are run on a Becton Dickinson FaxCaliber FLOW cytometry machine and the amount of dye taken up by each cell is measured in the high red wavelength (FL3). Only cells with compromised membranes (dead or dying) can take up PI. The percent of live cells is calculated by the number of cells not stained with PI, divided by the total number of cells in the sample. The viability values calculated for the drug treated groups were compared to the viability value calculated for the vehicle treated mitogen stimulated group (“vehicle positive control”) to determine the “percent change from control”. This “percent change from control” value is an indicator of drug toxicity.
The quantity of soluble TNF-α, TNF-R p75/80 and TNF-R p55/60 and IL-8 in the TCS of the ThP-1 cell cultures are obtained with commercially available ELISAs from R&D Systems, by extrapolation from a standard curve generated with kit standards. The number of cells that either take up or exclude PI are measured by the FLOW cytometry machine and visualized by histograms using commercially available Cytologic software for each treatment group including all controls.
Biological variability in the magnitude of the response of THP-1 cell cultures requires that experiments be compared on the basis of percent change from “vehicle positive control” for each drug concentration. Percent change in each soluble protein evaluated from the “vehicle positive control” was calculated for each compound concentration with the following formula: [formula]
For the soluble protein (TNF-a, p75/80, p55/60, IL-8) studies under stimulated conditions, the mean pg/ml of duplicate wells were determined and the results expressed as percent change from “vehicle positive control”. For the soluble protein (p75/80 and p55/60 receptors) studies under non-stimulated conditions, the mean pglml of duplicate wells were determined and the results expressed as percent change from “vehicle positive control” utilizing the following formula: [formula]
IC50 values for each compound are calculated by non-linear regression analysis using customized software utilizing the JUMP statistical package.
For the cell viability studies, the viabilities (PI exclusion) of pooled duplicate wells were determined and the results expressed as % change from “vehicle positive control”.

MMP-9 = MMP-9 (Homo sapiens, UniProt P14780); assay: MMP-9 inhibition, thiopeptide or fluorescent peptide substrate; format: biochemical; settings: for IC50: read-out: MMP9 IC50; for inhibition at 10 µM: read-out: MMP9 % @ 10 μM
Chain of MMP-9 (P14780 94-707): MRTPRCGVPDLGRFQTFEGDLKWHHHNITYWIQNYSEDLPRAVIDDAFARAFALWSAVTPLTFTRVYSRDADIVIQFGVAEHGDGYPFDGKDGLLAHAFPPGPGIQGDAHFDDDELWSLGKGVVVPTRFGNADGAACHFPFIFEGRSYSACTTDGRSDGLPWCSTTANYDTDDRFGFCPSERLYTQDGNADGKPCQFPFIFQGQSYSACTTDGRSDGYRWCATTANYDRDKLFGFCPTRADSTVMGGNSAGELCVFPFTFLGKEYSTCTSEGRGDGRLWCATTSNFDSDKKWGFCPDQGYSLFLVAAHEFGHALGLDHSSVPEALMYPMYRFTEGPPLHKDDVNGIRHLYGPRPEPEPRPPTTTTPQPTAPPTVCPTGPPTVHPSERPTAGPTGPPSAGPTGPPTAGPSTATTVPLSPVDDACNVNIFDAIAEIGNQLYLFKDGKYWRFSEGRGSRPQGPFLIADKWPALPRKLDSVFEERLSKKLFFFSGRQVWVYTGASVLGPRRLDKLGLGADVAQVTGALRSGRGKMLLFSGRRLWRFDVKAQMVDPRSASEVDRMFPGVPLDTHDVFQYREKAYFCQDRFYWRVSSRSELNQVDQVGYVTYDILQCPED
Procedure: (§1) The enzyme activity is measured by the rate of the color increase. The thiopeptide substrate is made up fresh as a 20 mM stock in 100% DMSO and the DTNB is dissolved in 100% DMSO as a 100 mM stock and stored in the dark at room temperature. Both the substrate and DTNB are diluted together to 1 mM with substrate buffer (50 mM HEPES pH 7.5, 5 mM CaCl2) before use. The stock of enzyme is diluted with buffer (50 mM HEPES, pH 7.5, 5 mM CaC12, 0.02% Brij) to the desired final concentration.
(§2) Alternatively, a fluorescent peptide substrate is used. In this test procedure, the peptide substrate contains a fluorescent group and a quenching group. Upon cleavage of the substrate by an MMP, the fluorescence that is generated is quantitated on the fluorescence plate reader. The assay is run in HCBC assay buffer (50 mM HEPES, pH 7.0, 5 mM Ca^+2, 0.02% Brij, 0.5% Cysteine), with human recombinant MMP-1, MMP-9, or MMP-13. The substrate is dissolved in methanol and stored frozen in 1 mM aliquots. For the assay, substrate and enzymes are diluted in HCBC buffer to the desired concentrations. Compounds are added to the 96 well plate containing enzyme and the reaction is started by the addition of substrate.
(§3) For either the thiopeptide or fluorescent peptide test procedures, the slope of the line is calculated and represents the reaction rate. […] The mean (x±sem) of the control rate is calculated and compared for statistical significance (p<0.05) with drug-treated rates using Dunnett's multiple comparison test.

MMP-1 = molecular target: T1, MMP-1 (Homo sapiens, UniProt P03956); assay: MMP-1 inhibition, thiopeptide or fluorescent peptide substrate; format: biochemical; settings: Table 1, second part; for IC50: read-out: MMP1 IC50; for inhibition at 10 µM: read-out: MMP1 % @ 10 μM
T1 sequence (P03956 100-469): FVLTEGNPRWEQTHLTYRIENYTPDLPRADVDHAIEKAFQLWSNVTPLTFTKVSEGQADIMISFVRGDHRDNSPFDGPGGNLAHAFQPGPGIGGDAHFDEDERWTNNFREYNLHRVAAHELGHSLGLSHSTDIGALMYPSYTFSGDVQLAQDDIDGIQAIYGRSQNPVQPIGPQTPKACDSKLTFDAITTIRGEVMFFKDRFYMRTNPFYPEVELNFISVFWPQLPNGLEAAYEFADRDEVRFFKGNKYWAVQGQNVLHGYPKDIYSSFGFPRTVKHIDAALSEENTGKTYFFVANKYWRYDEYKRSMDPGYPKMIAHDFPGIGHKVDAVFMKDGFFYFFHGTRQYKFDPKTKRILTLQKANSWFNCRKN
Procedure: as §1, §2, §3

[2] = molecular target: TNF-α converting enzyme (TACE) (Homo sapiens, UniProt P78536); assay: TACE inhibition, fluorescent peptidyl substrate; format: biochemical
Chain of TNF-α converting enzyme (TACE) (P78536 215-824): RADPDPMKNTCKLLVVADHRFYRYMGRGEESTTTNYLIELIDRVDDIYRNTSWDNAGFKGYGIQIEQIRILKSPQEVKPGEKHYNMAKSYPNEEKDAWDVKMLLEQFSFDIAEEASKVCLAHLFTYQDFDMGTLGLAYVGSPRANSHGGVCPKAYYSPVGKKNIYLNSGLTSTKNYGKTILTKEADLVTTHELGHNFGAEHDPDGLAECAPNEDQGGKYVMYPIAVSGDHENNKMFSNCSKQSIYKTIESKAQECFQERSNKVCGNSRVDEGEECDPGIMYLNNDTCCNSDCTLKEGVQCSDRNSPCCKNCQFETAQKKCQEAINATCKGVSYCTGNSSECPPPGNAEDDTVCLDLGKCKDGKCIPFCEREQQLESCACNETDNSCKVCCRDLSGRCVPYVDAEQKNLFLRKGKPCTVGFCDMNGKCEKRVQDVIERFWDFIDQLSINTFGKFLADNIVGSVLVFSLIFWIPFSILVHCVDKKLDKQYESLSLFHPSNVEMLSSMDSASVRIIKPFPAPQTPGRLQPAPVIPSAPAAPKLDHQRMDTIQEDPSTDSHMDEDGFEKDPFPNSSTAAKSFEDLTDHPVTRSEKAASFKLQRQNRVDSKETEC
Procedure: […] The reaction is initiated by addition of a fluorescent peptidyl substrate (final concentration 100 μM) to each well and then shaking on a shaker for 5 sec.
The reaction is read (excitation 340 nm, emission 420 nm) for 10 min. and the increase in fluorescence over time is plotted as a linear line. The slope of the line is calculated and represents the reaction rate.
The mean (x±sem) of the control rate is calculated and compared for statistical significance (p<0.05) with drug-treated rates using Dunnett's multiple comparison test.

MMP-13 = MMP-13 (Homo sapiens, UniProt P45452); assay: MMP-13 inhibition, thiopeptide or fluorescent peptide substrate; format: biochemical; settings: for inhibition at 10 µM: read-out: MMP13 % @ 10 μM; for IC50: read-out: MMP13 IC50
Procedure: as §1, §2, §3

[3] = Table 1, second part, footnote a: IC50 (nM), read-out: TACE IC50

Compound: CC#CCOc1ccc([S+]([O-])[C@@H](C(=O)NO)c2ccc(Br)cc2)cc1 (single isomer, unassigned) [Example 87]
inhibition at 3 µM [1]: -5%

Compound: CC#CCOc1ccc(SC(C(=O)NO)c2cccc(Br)c2)cc1 (stereo not drawn) [Example 103, 2-{[4-(2-Butynyloxy)phenyl]sulfanyl}-N-hydroxy-2-(3-bromophenyl)acetamide]
inhibition at 3 µM [1]: -15%

Compound: CC#CCOc1ccc(SC(C(=O)NO)c2ccc(OCC)cc2)cc1 (stereo not drawn) [Example 100, 2-{[4-(2-butynyloxy)phenyl]sulfanyl}-N-hydroxy-2-(4-ethoxyphenyl)acetamide]
inhibition at 3 µM [1]: 0%

Compound: CC#CCOc1ccc([S+]([O-])C(C(=O)NO)c2ccc(OCC)cc2)cc1 (stereo not drawn) [Example 101, 2-{[4-(2-Butynyloxy)phenyl]sulfinyl}-N-hydroxy-2-(4-ethoxyphenyl)acetamide]
inhibition at 3 µM [1]: -1%

Compound: 2-{[4-(2-butynyloxy)phenyl]sulfonyl}-2-(4-chlorophenyl)-N-hydroxyacetamide [Example 102]
IC50 [2, 3]: 82 nM
MMP13 % @ 10 μM (MMP-13; Table 1, second part): 71%
TNFalpha at 3 uM, THP (percent change) [1]: −10%
MMP1 % @ 10 μM (MMP-1): 26%

Compound: CC#CCOc1ccc([S+]([O-])[C@@H](C(=O)NO)c2ccc(OC)cc2)cc1 (single isomer, unassigned) [Example 77]
IC50 [2]: 201 nM
IC50 (MMP-13; Table 1, second part): 3690 nM
inhibition at 3 µM [1]: 12%
inhibition at 10 µM (MMP-9; Table 1, second part): 45.4%
inhibition at 10 µM (MMP-1): 17.5%

Further lines, with some results ahead:

IC50 (MMP-9; Table 1, second part): 399 nM
IC50 (MMP-1): 6480 nM
Compound: CC#CCOc1ccc([S+]([O-])[C@@H](C(=O)NO)C(C)C)cc1 (stereo partly drawn) [Example 108, R-2-{[4-(2-butynyloxy)phenyl]sulfinyl}-2-isopropyl-N-hydroxyacetamide]
TNFalpha at 3 uM, THP (percent change) [1]: −29%

TACE % @ 10 μM ([2]; Table 1, second part, footnote a: % @ 10 μM): 15.63%
MMP13 % @ 10 μM (MMP-13; Table 1, second part): 17%
MMP1 % @ 10 μM (MMP-1): 7%
Compound: CC#CCOc1ccc([S+]([O-])C(C(=O)NO)c2cccc3ccccc23)cc1 (stereo not drawn) [Example 93, 2-{[4-(2-Butynyloxy)phenyl]sulfinyl}-N-hydroxy-2-(1-napthyl)acetamide]
TNFalpha at 3 uM, THP (percent change) [1]: 1%

IC50 [2, 3]: 162 nM
inhibition at 10 µM (MMP-13; Table 1, second part): 59%
inhibition at 10 µM (MMP-9; Table 1, second part): 25.7%
inhibition at 10 µM (MMP-1): 6.2%
Compound: CC#CCOc1ccc([S+]([O-])C(C(=O)NO)c2ccccc2)cc1 (single isomer, unassigned) [Example 113, S-2-{[4-(2-butynyloxy)phenyl]sulfinyl}-2-phenyl-N-hydroxyacetamide]
inhibition at 3 µM [1]: 4%

IC50 (MMP-9; Table 1, second part): 893 nM
IC50 (MMP-1): 2990 nM
Compound: CC#CCOc1ccc([S+]([O-])C(C(=O)NO)C(C)C)cc1 (stereo not drawn) [Example 109, S-2-{[4-(2-butynyloxy)phenyl]sulfinyl}-2-isopropyl-N-hydroxyacetamide]
TNFalpha at 3 uM, THP (percent change) [1]: −20%

IC50 [2, 3]: 148 nM
inhibition at 10 µM (MMP-13; Table 1, second part): 53.4%
inhibition at 10 µM (MMP-9; Table 1, second part): 0%
inhibition at 10 µM (MMP-1): 18.4%
Compound: CC#CCOc1ccc([S+]([O-])C(C(=O)NO)c2ccc(F)cc2)cc1 (stereo not drawn) [Example 96]
inhibition at 3 µM [1]: 12%

IC50 ([2]; Table 1, first part, read-out: TACE IC50): 74.8 nM
IC50 (MMP-13; Table 1, first part): 500 nM
IC50 (MMP-9; Table 1, first part): 2500 nM
Compound: CC#CCOc1ccc(S(=O)(=O)C(CCCCCC)C(=O)NO)cc1 (stereo not drawn) [Example 5, 2-(4-But-2-ynyloxy-benzenelsulfonyl)-octanoic Acid Hydroxamide]
